Experimental data from patent publication US20230109839A1, “THERAPEUTIC AGENT FOR TAUOPATHIES” (SUMITOMO PHARMA CO., LTD., priority 2020, published 2023).
“Also recorded” adds a separate entry of the source. Read-outs that look alike come from different tables or passages of the source. Values belong to the compound of their own block, whether it stands above or below them.

Assays:
[1] = test system: phosphorylated tau oligomer; assay: Evaluation of phosphorylated tau oligomers in brain of APP-Tg mice, Western blotting (Test 4); type: in vivo, mouse; conditions: for Reducing effect of phosphorylated tau oligomer: 7-10 days, with ABT 1 mg/g-food; for reducing effect of tau oligomer: with food for 7-10 days, ABT 1 mg/g-food depending on the compound, brain, anti-oligomerized tau antibody TOMA-1
Description: Test 4: Evaluation of Phosphorylated Tau Oligomers Using APP-Tg Mice
This test is a test to quantify the oligomer of phosphorylated tau in the brain to evaluate the action of a compound. […] The APP-Tg mice used herein were prepared by the method described in Test 3.
The test compound administered with food to APP-Tg mice for 7-10 days. At this time, in order to increase the blood concentration of the test compound, ABT was used in combination with a mixed diet of 1 mg/g-food depending on the compound. After the administration, the brain was collected, and the protein is extracted from the collected brain using TBS (Tris Buffered Saline) or sarcosyl, and then SDS-PAGE (sodium dodecyl sulfate-polyacrylamide gel electrophoresis) of the soluble or insoluble fraction was performed. After that, Western blotting was performed using an anti-oligomerized tau antibody (Anti-Tau, oligomeric, clone TOMA-1), and the effect of the test compound was evaluated by quantifying the band amount of the phosphorylated tau oligomer.
The reducing effect of phosphorylated tau oligomer was calculated by the following formula, and from the calculated values, the results were defined as follows: 0-25%: +, 25-50%: ++, 50-75%: +++, and 75-100%: ++++. The significant difference from the vehicle-administered group was determined using the Student t-test. For the band amount, the value corrected by the β-actin band amount was used.
Reducing effect of phosphorylated tau oligomer={(band amount of oligomerized tau in vehicle-administered group−band amount of oligomerized tau in test compound-administered group)/band amount of oligomerized tau in vehicle-administered group}×100

human Nav1.1 = molecular target: T1, human Nav1.1 (Homo sapiens, UniProt P35498); assay: Amplification of Nav1.1-derived voltage-gated sodium current (Nav1.1 current), automated patch clamp (Test 1); type: cell-based; conditions: for activation at 10 µM: HEK293, concentration for evaluation 10 μM
T1 construct: host or cells: HEK293
Summary of the method: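 HEK293 cells stably expressing human Nav1.1, restricted to cells with >500 pA current, were recorded by automated voltage-clamp patch clamp with a ramp voltage stimulus. Compounds were applied in HEPES-buffered extracellular solution with 1% DMSO. Amplification (%) = 100×(peak or AUC after/before compound)−100.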

APP-Tg mouse = assay: Evaluation of the cognitive function by novel object recognition test (NORT) in APP-Tg mice (Test 3); type: in vivo; set-up: key to Discrimination index: (novel − known search time)/(novel + known search time); conditions: for improvement of cognitive function (NORT) / improvement of cognitive function (NORT), summary of the above results: APP-Tg mice; for improvement of cognitive function (NORT): Elacridar orally 100 mg/kg 2 hours before, test compound intraperitoneally 30 minutes before the first trial run; for improvement of cognitive function (NORT), summary of the above results: alone, with Elacridar or with ABT depending on the compound; for Discrimination index: APP-Tg mouse, with Elacridar 100 mg/kg orally 2 hours before first trial run
Description: Test 3: Evaluation of the Cognitive Function by Novel Object Recognition Test (Hereinafter, Also Referred to as “NORT”)
The present test is for evaluating the improvement of cognitive function with the test compounds. When an APP-Tg mouse which is an AD (Alzheimer's disease) model mouse is evaluated by NORT, the memory for a familiar object decreases depending on the time interval between the first trial run (training) and the second trial run (test). For example, if the first trial run is done and 3 hours later the second one is done, there is no difference in the searching times between novel object and known object for the APP-Tg mouse, compared with a healthy mouse. Thus, the APP-Tg mouse suffers from significant amnesia.
The APP-Tg mouse used herein was prepared by constructing an expression cassette linked to human APP751 isoform to which Swedish (K670N/M671L) and Indiana (V717F) mutation were introduced at downstream of mouse Thy-1 promoter, then injecting the expression cassette into a mouse fertilized egg, and transplanting it to a host mouse. The prepared mouse presents with intracerebral AB accumulation and cognitive dysfunction from early on, and thus the mouse can be used for the evaluation of cognitive function. APP-Tg mouse has been also reported in Non-patent literature 6.
To the prepared APP-Tg mouse, the test compound was administered, and then the first trial run was done for the mouse 30 minutes after the intraperitoneal administration or after 10 days of mixed diet administration. The second trial run was done 3 hours after the first trial run, and the searching times between novel object and known object in the second trial were evaluated. The discrimination index was calculated from the searching time for novel object and known object in the second trial run, and the improvement of cognitive function of the test compound was confirmed by comparing the discrimination index with the test compound-unadministered group as an index of the cognitive function. The discrimination index was calculated by the following formula.
Discrimination index={(Searching time for novel object)−(Searching time for known object)}/{(Searching time for novel object)+(Searching time for known object)}
The present test can be also done with a combination with Elacridar (Tokyo Chemical Industry Co., Ltd.). Elacridar can inhibit P-gp and BCRP which are excretion transporters expressed in the blood-brain barrier and thereby Elacridar has the effect of improving the transferability of the test compound to the brain. Eracridal was orally administered to APP-Tg mice at 100 mg/kg 2 hours before the first trial run, and then the test compound was intraperitoneally administered to the mice 30 minutes before the first trial run according to the above method. And, the improvement of cognitive function was evaluated. The significant difference from the vehicle-administered group was determined using the parametric Dunnett multiple comparison test.
And, the present test can be also done with a combination with ABT (1-aminobenzotriazole) (Tokyo Chemical Industry Co., Ltd.). ABT has the effect of improving the blood concentration of the test compound by inhibiting CYP and suppressing metabolism. The test compound and ABT (1 mg/g-food) were administered with food to APP-Tg mice for 10 days, and then the improvement of cognitive function was evaluated according to the above method. The significant difference from the vehicle-administered group was determined using the parametric Dunnett multiple comparison test.

[2] = HEK293, Concentration for evaluation 1 μM, HEK293 cell line stably expressing human Nav1.1, read-out: Nav1.1 current amplification rate (%)
[3] = concentration for evaluation 50 μM, HEK293 stably expressing human Nav1.1
[4] = HEK293, concentration for evaluation 1 μM, HEK293 stably expressing human Nav1.1, read-out: Nav1.1 current amplification rate (%)
[5] = HEK293 stably expressing human Nav1.1, read-out: Nav1.1 current amplification rate (%)

Compound: Cc1cc(NC(=O)Cn2nc(C3=CCC(C)CC3)ccc2=O)cc(C)n1 (centres unmarked) [Example 364, N-(2,6-dimethylpyridin-4-yl)-2-[3-(4-methylcyclohex-1-en-1-yl)-6-oxopyridazin-1(6H)-yl]acetamide]
- Reducing effect of phosphorylated tau oligomer ([1]; dose 0.6 mg/g-food): + (0-25%: +)
- Reducing effect of phosphorylated tau oligomer ([1]; dose 2 mg/g-food): + (0-25%: +)
- activation at 1 µM (human Nav1.1; [2]): 25%

Compound: Cc1ncccc1N1CCN(C(=O)Cn2nc(C3=CCC(C)CC3)ccc2=O)CC1 (centres unmarked) [Example 410, 6-(4-methylcyclohex-1-en-1-yl)-2-{2-[4-(2-methylpyridin-3-yl)piperazin-1-yl]-2-oxoethyl}pyridazin-3 (2H)-one]
- Reducing effect of phosphorylated tau oligomer ([1]; dose 0.6 mg/g-food): +++ (50-75%: +++)
- Reducing effect of phosphorylated tau oligomer ([1]; dose 2 mg/g-food): + (0-25%: +)
- reducing effect of tau oligomer [1]: some reducing effect of tau oligomer; also recorded: strong reducing effect of tau oligomer
- activation at 3 µM (human Nav1.1; HEK293, Concentration for evaluation 3 μM, HEK293 cell line stably expressing human Nav1.1, read-out: Nav1.1 current amplification rate (%)): 66%

Compound: CN(c1ccc(=O)n(CC(=O)N2CCc3c(N4CCOCC4)cccc32)n1)C1CCCC1 [Example 565, 6-[cyclopentyl(methyl)amino]-2-{2-[4-(morpholin-4-yl)-2,3-dihydro-1H-indol-1-yl]-2-oxoethyl}pyridazin-3(2H)-one]
- Reducing effect of phosphorylated tau oligomer ([1]; dose 0.5 mg/g-food): +++ (50-75%: +++)
- Reducing effect of phosphorylated tau oligomer ([1]; dose 4.5 mg/g-food): ++ (25-50%: ++)
- reducing effect of tau oligomer [1]: some reducing effect of tau oligomer; also recorded: strong reducing effect of tau oligomer

Compound: CC1CCN(c2ccc3cnn(CC(=O)Nc4ccc(C(F)(F)F)nc4)c3n2)CC1 [Example 879]
- Nav1.1 current amplification rate (%) (human Nav1.1; [3]): 16%

Compound: CC1CC=C(c2ccc3cnn(CC(=O)N4CCN(c5cccnc5)CC4)c3n2)CC1 (centres unmarked) [Example 881]
- activation at 1 µM (human Nav1.1; [4]): 446%

Compound: CC1CC=C(c2ccc3cnn(CC(=O)N4CCc5c(N6CCOCC6)cccc54)c3n2)CC1 (centres unmarked) [Example 882]
- activation at 1 µM (human Nav1.1; [4]): 88%

Compound: CC1CC=C(c2ccc3cnn(CC(=O)Nc4ccc5ocnc5c4)c3n2)CC1 (centres unmarked) [Example 883]
- activation at 1 µM (human Nav1.1; [4]): 164%

Compound: O=C(Cn1ncc2ccc(-c3ccc(F)cc3F)nc21)Nc1ccc2ocnc2c1 [Example 884]
- activation at 1 µM (human Nav1.1; [4]): 34%

Compound: O=C(Cn1ncc2cnc(N3CCC4(CCC4)CC3)nc21)NC1=CC2N=CN=CC2C=C1 (centres unmarked) [Example 885]
- activation at 1 µM (human Nav1.1; [4]): 209%

Compound: CN(c1ccc2cnn(CC(=O)N3CCc4c(C5CC5)cccc43)c2n1)C1CC1 [Example 887]
- activation at 0.3 µM (human Nav1.1; HEK293, concentration for evaluation 0.3 μM, HEK293 stably expressing human Nav1.1, read-out: Nav1.1 current amplification rate (%)): 173%

Compound: N#Cc1ccc(NC(=O)Cn2ncc3ccc(N4CCC5(CC5)C(F)(F)C4)nc32)cn1 [Example 890]
- activation at 1 µM (human Nav1.1; [4]): 68%

Compound: CC1CC=C(c2ccc3cnn(CC(=O)N4CCN(c5cccnc5)CC4)c3c2)CC1 (centres unmarked) [Example 893]
- activation at 10 µM (human Nav1.1; [5]): 31%

Compound: CC1CC=C(c2ccc3cnn(CC(=O)Nc4ccn5ccnc5c4)c3c2)CC1 (centres unmarked) [Example 894]
- activation at 10 µM (human Nav1.1; [5]): 151%

The next lines start with results.

- activation at 1 µM (human Nav1.1; [2]): 78%
Compound: CN(c1cnc2cnn(CC(=O)Nc3ccn4ncnc4c3)c2n1)C1CCCC1 [Example 593, 2-{6-[cyclopentyl(methyl)amino]-1H-pyrazolo[3,4-b]pyrazin-1-yl}-N-([1,2,4]triazolo[1,5-a]pyridin-7-yl)acetamide]
- improvement of cognitive function (NORT) (APP-Tg mouse): some improvement of cognitive function
- improvement of cognitive function (NORT), summary of the above results (APP-Tg mouse): some improvement of cognitive function
- Discrimination index (APP-Tg mouse; dose 60 (mg/g i.p.)): 0.20
- Discrimination index (APP-Tg mouse): 0.11

- activation at 1 µM (human Nav1.1; [2]): 84%
Compound: O=C(Cn1ncc2ncc(N3CCC4(CC4)C(F)(F)C3)nc21)Nc1ccn2ncnc2c1 [Example 609, 2-[6-(4,4-difluoro-6-azaspiro[2.5]octan-6-yl)-1H-pyrazolo[3,4-b]pyrazin-1-yl]-N-([1,2,4]triazolo[1,5-a]pyridin-7-yl)acetamide]
- improvement of cognitive function (NORT) (APP-Tg mouse; 100 mg/kg): some improvement of cognitive function; also recorded: strong improvement of cognitive function
- improvement of cognitive function (NORT), summary of the above results (APP-Tg mouse): some improvement of cognitive function
- Discrimination index (APP-Tg mouse; dose 60 (mg/g i.p.)): 0.29
- Discrimination index (APP-Tg mouse): 0.29

- Nav1.1 current amplification rate (%) (human Nav1.1; [3]): 42%
Compound: CC1CCN(c2ccc3cnn(CC(=O)Nc4ccc5nccn5n4)c3n2)CC1 [Example 880]

- activation at 1 µM (human Nav1.1; [4]): 125%
Compound: Cc1cc(NC(=O)Cn2ncc3ccc(N(C)C4CC4)nc32)cc2ncnn12 [Example 886]

- activation at 1 µM (human Nav1.1; [4]): 101%
Compound: CN(c1ccc2cnn(CC(=O)Nc3cnc4cccnc4c3)c2n1)C1CC1 [Example 888]

- activation at 1 µM (human Nav1.1; [4]): 151%
Compound: CN(CC1CCC1)c1ccc2cnn(CC(=O)Nc3cnc4cccnc4c3)c2n1 [Example 889]

- activation at 1 µM (human Nav1.1; [4]): 81%
Compound: CN(c1ccc2cnn(CC(=O)Nc3cnc4cccnc4c3)c2n1)C1CCCC1 [Example 891]

- activation at 1 µM (human Nav1.1; [4]): 39%
Compound: CN(c1ccc2cnn(CC(=O)Nc3ccc4ncncc4c3)c2n1)C1CCCC1 [Example 892]

- activation at 1 µM (human Nav1.1; [4]): 244%
Compound: CC1CC=C(c2cnc3cnn(CC(=O)Nc4ccn5ncnc5c4)c3n2)CC1 (centres unmarked) [Example 895, 2-[6-(4-methylcyclohex-1-en-1-yl)-1H-pyrazolo[3,4-b]pyrazin-1-yl]-N-([1,2,4]triazolo[1,5-a]pyridin-7-yl)acetamide]

- Nav1.1 current amplification rate (%) (human Nav1.1; concentration for evaluation 1 μM, HEK293 stably expressing human Nav1.1): 241%
Compound: CC1CC=C(c2cnc3cnn(CC(=O)Nc4ccn5ncnc5c4)c3n2)CC1 (centres unmarked) [Example 896, 2-[6-(4-methylcyclohex-1-en-1-yl)-1H-pyrazolo[3,4-b]pyrazin-1-yl]-N-([1,2,4]triazolo[1,5-a]pyridin-7-yl)acetamide]
